Experimental data: patent publication US8609585B2 (priority 2008, dated 2013)
Where two headings read alike, the source gives them in different places.

Columns and labels:
Type in all cases: in vivo
[1] = test system: Phytophthora infestans, pathogen of tomato late blight; settings: foliage application
[2] = test system: Pythium ultimum, pathogen of cucumber damping-off; experiment: Cucumber damping-off control test, seed treatment (Test Example 2)
Protocol: (§1) Control value=100(A−B)/A “Equation 1”
Generally, the control value expected for the case in which the given two kinds of active ingredient compounds are mixed and used for the treatment, the so-called control value expectation is calculated from the following Colby's calculating equation. E=X+Y−(X×Y)/100 “Equation 2”
E: Control value (%) expected for the case in which active ingredient compound A in M ppm or in M g per 100 kg of seeds and active ingredient compound B in N ppm or in N g per 100 kg of seeds are mixed and used for treatment (hereinbelow referred to as “control value expectation”) “Synergetic effect(%)”=(Actual control value)×100/(Control value expectation)
An acetone solution of the compound (1b) and an acetone solution of ethaboxam were mixed to prepare mixed liquids containing the compound (1b) and ethaboxam in predetermined concentration. These mixed liquids were adhered on the surface of cucumber (Sagamihanjiro) seeds and allowed to stand still overnight to obtain treated seeds. A plastic pot was filled with sandy soil and the treated seeds were disseminated on it. Then the seeds were covered with sandy soil which had been mixed with a bran medium on which Pythium ultimum, pathogen of cucumber damping-off, had been allowed to grow. They were irrigated and allowed to grow at 18° C. under humidity for 13 days, and thereafter control effect was checked. The incidence of disease was calculated by Equation 3 and the control value was calculated by Equation 1 based on the incidence of disease.
As a comparison, acetone solutions containing the compound (1b) in the predetermined concentration and an acetone solution containing ethaboxam in the predetermined concentration were prepared and subjected to similar tests. Incidence of disease=(Number of no emerging seedlings and number of seedlings in which development of disease was observed)×100/(Number of total disseminated seeds) “Equation 3”

[3] = test system: Plasmopara viticola, pathogen of grape downy mildew; experiment: Grape downy mildew control test, foliage application (Test Example 3)
Text: as §1
A plastic pot was filled with sandy soil, and grape (Berry A) was then disseminated. The grape was allowed to grow in a green house for 40 days. A wettable powder of the compound (1b) and a wettable powder of ethaboxam were respectively diluted with water and then tank-mixed so as to prepare tank-mixed liquids containing compound (1b) and ethaboxam in predetermined concentration. The tank-mixed liquids were subjected to foliage application such that they could be sufficiently adhered to the underside of the leaves of the aforementioned grape plants. After the foliage application, the plants were air-dried. Thereafter, an aqueous suspension of sporangia of Plasmopara viticola, pathogen of grape downy mildew, was sprayed on the grape plants to inoculate the pathogen. They were placed at 23° C. under high humidity for one day after the inoculation, cultured in a greenhouse at 23° C. for 5 days. The grape plants were thereafter placed at 23° C. under high humidity for one day and infected area was checked.
As a comparison, the respective wettable powders described above were diluted with water in predetermined concentration so as to prepare compound (1b) liquids and a ethaboxam liquid respectively and they were subjected to similar disease control test. In order to calculate the control value, the incidence of disease was also determined in the case in which the plants had not been treated with the agent. The relative incidence of disease of each treated area was determined as the incidence of disease of the area assuming that the incidence of disease of untreated area was represented as 100, and the control value was calculated by Equation 1 based on the incidence of disease thus determined.

Row | Structure (SMILES) | Actual control value ([1]; compound (1b) 10 ppm alone) [%] | Actual control value ([1]; compound (1b) 50 ppm alone) [%] | Actual control value ([2]; compound (1b) 5 g ai/100 kg-seed alone) [%] | Actual control value ([2]; compound (1b) 10 g ai/100 kg-seed alone) [%] | Actual control value ([2]; compound (1b) 20 g ai/100 kg-seed alone) [%] | Actual control value ([3]; compound (1b) 2 ppm alone) [%] | Actual control value ([1]; ethaboxam 0.4 ppm alone) [%] | Actual control value ([2]; ethaboxam 10 g ai/100 kg-seed alone) [%] | Actual control value ([3]; ethaboxam 0.4 ppm alone) [%] | Actual control value ([3]; ethaboxam 2 ppm alone) [%]
1 | CNC(=O)C(OC)c1ccccc1COc1cc(C)ccc1C (racemic) [Compound (1b)] | 5 | 25 | 6.7 | 6.7 | 13 | 2 |  |  |  | 
2 | CCNc1nc(CC)c(C(=O)NC(C#N)c2cccs2)s1 (stereo not shown) [Ethaboxam, ethaboxam, reference compound] |  |  |  |  |  |  | 10 | 73 | 1 | 35
